In series [1] the test system is L2987. Description: In vitro inhibitory concentration of the BR96 conjugate of compound against human L2987 lung carcinoma cell line. The format is functional, cell-based.
Series [2] deals with L2987. Description: In vitro inhibitory concentration of the IgG conjugate of compound against human L2987 lung carcinoma cell line. In kind it is functional, cell-based.
Series [3] concerns L2987. In words: (§1) Potency against human L2987 lung carcinoma cell line relative to that of BR96-1b. The format is functional, cell-based.
Series [4] in a line: Selectivity ratio determined as IC50 IgG-3b to that of IC50 BR96-3b. The format is functional.
Series [5] can be described thus: Hydrolytic stability at pH 5.0 at 37 degree C; expressed as T1/2. In kind it is physicochemical. The conditions noted are these: buffer.
Series [6] in a line: Hydrolytic stability at pH 7.0 at 37 degree C; expressed as T1/2. The format is physicochemical. The conditions noted are these: buffer.
Series [7] relates to L2987. Description: In vitro inhibitory concentration of the unconjugated compound against human L2987 lung carcinoma cell line. The format is functional, cell-based.
In series [8] the test system is L2987. In words: Potency against human L2987 lung carcinoma cell line relative to that of DOX 1a. In kind it is functional.
Series [9] concerns L2987. The series is described as §1. In kind it is functional.
Series [10] can be described thus: Selectivity ratio determined as IC50 IgG-2b to that of IC50 BR96-2b. In kind it is functional.
Series [11] is described as follows: Selectivity ratio determined as IC50 IgG-1b to that of IC50 BR96-1b. In kind it is functional.

Broadly, the IC50 is the midpoint of a concentration-inhibition curve. In general, half-life refers to how long it takes for the measured level to halve. High values mean slow decline, low ones rapid decline.

Structures are written as SMILES. A value given as a limit tells only on which side of the number the result lay.

Turning to `COc1cccc2c1C(=O)c1c(O)c3c(c(O)c1C2=O)C[C@@](O)(/C(CO)=N/NC(=O)CCCCCN1C(=O)CC(S)C1=O)C[C@@H]3OC1C[C@H](N2CCOCC2)C(O)[C@H](C)O1` (stereo partly specified), the IC50 stood at 200 nM in the series on L2987 [1], 2 µM with L2987 [2] and 5 µM in the series on L2987 [3]. Besides, the Ratio in series [4] was found to be 10.

With `COc1cccc2c1C(=O)c1c(O)c3c(c(O)c1C2=O)C[C@@](O)(/C(CO)=N/NC(=O)CCCCCN1C(=O)CC(SCCO)C1=O)C[C@@H]3OC1C[C@H](N)C(O)[C@H](C)O1` (stereo partly specified), the half-life in series [5] is 420 min; in series [6], over 5 days.

`COc1cccc2c1C(=O)c1c(O)c3c(c(O)c1C2=O)C[C@@](O)(C(=O)CO)C[C@@H]3OC1C[C@H](N2CCOCC2)C(O)[C@H](C)O1` (stereo partly specified): half-maximal inhibition with L2987 [7] (IC50) required 40 nM. The Relative potency with L2987 [8] is on record as 8.

Take `COc1cccc2c1C(=O)c1c(O)c3c(c(O)c1C2=O)C[C@@](O)(/C(CO)=N/NC(=O)CCCCCN1C(=O)CC(SCCO)C1=O)C[C@@H]3OC1C[C@H](NCCCCC(OC(C)=O)OC(C)=O)C(O)[C@H](C)O1` (stereo partly specified): the figures for the half-life in [5] and in [6] were 390 min and over 4.17 days, respectively.

The compound `COc1cccc2c1C(=O)c1c(O)c3c(c(O)c1C2=O)C[C@@](O)(C(=O)CO)C[C@@H]3O[C@H]1C[C@H](N)[C@H](O)[C@H](C)O1` [DOXORUBICIN] displayed an IC50 with L2987 [7] of 300 nM.

`COc1cccc2c1C(=O)c1c(O)c3c(c(O)c1C2=O)C[C@@](O)(/C(CO)=N/NC(=O)CCCCCN1C(=O)CC(S)C1=O)C[C@@H]3OC1C[C@H](NCCCCC(OC(C)=O)OC(C)=O)C(O)[C@H](C)O1` (stereo partly specified): the IC50 with L2987 [1] worked out at 30 nM; with L2987 [2], 10 µM. In the series on L2987 [9], this compound had a Relative potency of 30. For the same compound, the Ratio in series [10] worked out at 300.

In turn, `COc1cccc2c1C(=O)c1c(O)c3c(c(O)c1C2=O)C[C@@](O)(/C(CO)=N/NC(=O)CCCCCN1C(=O)CC(S)C1=O)C[C@@H]3OC1C[C@H](N)C(O)[C@H](C)O1` (stereo partly specified) came in with an IC50 in the series on L2987 [1] of 1000 nM. The Ratio in series [11] was found to be 8.

In the case of `COc1cccc2c1C(=O)c1c(O)c3c(c(O)c1C2=O)C[C@@](O)(C(=O)CO)C[C@@H]3OC1C[C@H](NCCCCC(OC(C)=O)OC(C)=O)C(O)[C@H](C)O1` (stereo partly specified), the IC50 in the series with L2987 [7] turned out to be 30 nM. The compound further displayed a Relative potency with L2987 [8] of 10.

With `COc1cccc2c1C(=O)c1c(O)c3c(c(O)c1C2=O)C[C@@](O)(/C(CO)=N/NC(=O)CCCCCN1C(=O)CC(SCCO)C1=O)C[C@@H]3OC1C[C@H](N2CCOCC2)C(O)[C@H](C)O1` (stereo partly specified), the half-life in [5] is 270 min; in series [6], over 3.96 days.

These data come from ChEMBL document CHEMBL1136074, “BR96 conjugates of highly potent anthracyclines” (Bioorg Med Chem Lett, 2003).
